Reference: ChEMBL document CHEMBL1833794, “Synthesis and biological evaluation of 1-substituted-3-(6-methylpyridin-2-yl)-4-([1,2,4]triazolo[1,5-a]pyridin-6-yl)pyrazoles as transforming growth factor-β type 1 receptor kinase inhibitors” (Bioorg Med Chem Lett, 2011)

Experiments:
Settings in all cases: in vivo
[1] = Oral bioavailability in mouse at 50.3 mg/kg; type: ADME, organism-based
[2] = Oral bioavailability in rhesus monkey at 5.5 mg/kg; type: ADME, organism-based, Macaca mulatta
[3] = Oral bioavailability in dog at 5.5 mg/kg; type: ADME, organism-based, Canis lupus familiaris
[4] = Oral bioavailability in rat at 50.3 mg/kg; type: ADME, organism-based

bioavailability [1]: 8.95%
bioavailability [2]: 34.4%
bioavailability [3]: 84.9%
bioavailability [4]: 11.4%
Compound: Cc1cccc(-c2[nH]c(Cc3cccc(C(N)=O)c3)nc2-c2ccc3nccnc3c2)n1
